≈ marks a conversion by molar mass, not a printed value. Where two headings read alike, the source gives them in different places.

Usually IC50 stands for the concentration that gives 50% inhibition. A higher IC50 goes with weaker potency in that assay. The MBC is the smallest concentration meeting the test's criterion for killing. A higher MBC goes with less potent killing. A word on the MIC: it is the lowest concentration found to suppress growth. A higher MIC goes with weaker potency.

The subject of series [1] is sPLA2. In kind it is biochemical.
For series [2], the target named is T1, soybean LOX-1 (Glycine max, UniProt P08170).
T1 sequence (P08170 1-839): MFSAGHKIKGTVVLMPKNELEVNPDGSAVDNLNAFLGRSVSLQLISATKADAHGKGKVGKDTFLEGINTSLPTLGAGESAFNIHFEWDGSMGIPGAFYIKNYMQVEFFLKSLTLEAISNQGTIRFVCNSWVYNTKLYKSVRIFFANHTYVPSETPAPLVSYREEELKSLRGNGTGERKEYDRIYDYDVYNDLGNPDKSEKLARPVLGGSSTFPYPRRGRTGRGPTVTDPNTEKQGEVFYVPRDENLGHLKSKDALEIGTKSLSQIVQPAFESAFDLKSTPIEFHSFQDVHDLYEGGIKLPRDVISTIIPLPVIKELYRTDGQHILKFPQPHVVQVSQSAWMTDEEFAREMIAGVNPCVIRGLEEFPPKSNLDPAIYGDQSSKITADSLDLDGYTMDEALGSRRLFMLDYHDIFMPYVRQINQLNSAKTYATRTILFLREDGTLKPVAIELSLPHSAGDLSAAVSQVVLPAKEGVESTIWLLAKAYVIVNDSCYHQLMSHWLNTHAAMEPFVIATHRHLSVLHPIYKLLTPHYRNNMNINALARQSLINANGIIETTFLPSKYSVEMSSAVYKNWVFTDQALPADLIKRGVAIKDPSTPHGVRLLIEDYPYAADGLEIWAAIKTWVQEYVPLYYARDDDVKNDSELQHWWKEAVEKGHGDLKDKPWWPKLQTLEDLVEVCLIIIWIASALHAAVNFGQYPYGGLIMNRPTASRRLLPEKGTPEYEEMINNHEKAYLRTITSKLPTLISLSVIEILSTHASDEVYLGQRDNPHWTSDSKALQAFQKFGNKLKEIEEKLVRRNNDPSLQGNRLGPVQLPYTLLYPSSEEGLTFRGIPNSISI
The experiment in a line: Lipoxygenase. It counts as biochemical.

The target in series [3] is T2, COX-2 (Homo sapiens, UniProt P35354).
T2 sequence (P35354 18-604): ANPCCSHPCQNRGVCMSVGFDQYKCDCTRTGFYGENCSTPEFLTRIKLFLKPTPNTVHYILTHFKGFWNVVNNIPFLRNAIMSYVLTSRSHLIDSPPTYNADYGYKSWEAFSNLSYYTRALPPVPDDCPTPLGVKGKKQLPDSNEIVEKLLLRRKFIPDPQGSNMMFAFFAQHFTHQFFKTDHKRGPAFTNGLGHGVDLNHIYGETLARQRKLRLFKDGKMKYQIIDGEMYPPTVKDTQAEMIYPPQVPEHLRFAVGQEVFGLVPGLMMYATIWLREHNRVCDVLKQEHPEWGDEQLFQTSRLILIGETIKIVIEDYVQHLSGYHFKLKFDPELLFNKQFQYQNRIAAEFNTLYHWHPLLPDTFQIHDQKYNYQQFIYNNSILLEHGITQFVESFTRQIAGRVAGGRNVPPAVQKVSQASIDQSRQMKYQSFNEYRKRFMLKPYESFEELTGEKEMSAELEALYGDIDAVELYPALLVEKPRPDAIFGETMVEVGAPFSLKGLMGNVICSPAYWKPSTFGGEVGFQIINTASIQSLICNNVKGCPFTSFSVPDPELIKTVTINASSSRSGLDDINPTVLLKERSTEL
The experiment in a line: Cyclooxygenase. In kind it is biochemical.

The subject of series [4] is Staphylococcus aureus. The experiment in a line: Broth microdilution MIC/MBC against planktonic cells. In kind it is cell-based.
The subject of series [5] is Artemia salina. The series can be described thus: General.
In series [6] the test system is S. aureus F7 strain. The series can be described thus: Electron microscopy. It counts as cell-based, Staphylococcus aureus. The following applies: DHC at MIC, 24 h, SEM and TEM.
In series [7] the test system is S. aureus (ATCC 25923 and F7 strains) biofilm. The experiment in a line: Biofilm formation. In kind it is cell-based, Staphylococcus aureus. To be noted: 1/2 MIC, 24 h, F7 and ATCC 25923 strains, crystal violet.
Series [8] concerns human hepatoma HepG2 cells. To be noted: ref Zampini et al. (2008); cited from earlier work.
[9] abbreviates: ATCC29213, S. aureus ATCC 29213, control strain.
Where [10] appears, read: S. aureus clinical isolate 5 (F5), Met^r Oxa^r.
Where [11] appears, read: S. aureus clinical isolate 7 (F7), Met^r Oxa^r Gen^r.
The mark [12] stands for this setting: S. aureus clinical isolate 8 (F8), Met^r Oxa^r.
Setting [13] is: S. aureus clinical isolate 23 (F23), Met^r Oxa^r.
Setting [14] is: S. aureus clinical isolate 31 (F31), Met^r Oxa^r Van^s.

As for `COc1ccc2cc([C@H](C)C(=O)O)ccc2c1` [Naproxen, reference compound], the “Inhibition (%) sPLA2” value in series [1] stood at 6.00 ± 0.40%.
Take `O=c1c(O)c(-c2ccccc2)oc2cc(O)ccc12` [DHF, 3,7-dihydroxyflavone]: the IC50 was 227 µM in series [2] and 100 µM in series [3]. Besides, the minimal bactericidal concentration (MBC) in series [4] (setting [9]) was above 500 µg/mL; in series [4] (setting [10]), above 500 µg/mL; in series [4] (setting [11]), above 500 µg/mL; in series [4] (setting [12]) it was 400 µg/mL (≈ 1570 µM); in series [4] (setting [13]), above 500 µg/mL; in series [4] (setting [14]), above 500 µg/mL. Moreover, the minimum inhibitory concentration (MIC) in series [4] (setting [9]) was determined as 400 µg/mL (≈ 1570 µM); in series [4] (setting [10]), 200 µg/mL (≈ 787 µM); in series [4] (setting [11]) it was 200 µg/mL (≈ 787 µM); in series [4] (setting [12]), 25 µg/mL (≈ 98.3 µM); in series [4] (setting [13]), 200 µg/mL (≈ 787 µM); in series [4] (setting [14]), 200 µg/mL (≈ 787 µM). In addition, the “Inhibition (%) sPLA2” value in series [1] (10 μg/mL) is given as 2.70 ± 0.20%. Also, the “activity on sPLA2” value in series [1] (at the concentration assayed (10 μg/mL)) is recorded as “not active”.
In series [2], `COc1c(O)ccc(C(=O)/C=C/c2ccccc2)c1O` [DHMC, 2′,4′-dihydroxy-3′-methoxychalcone] gave a concentration for half-maximal inhibition (IC50) of 235 µM. For the same compound, the “activity against COX-2” value in series [3] (tested concentrations 10–150 μg/mL) is “not active”. In addition, the MBC in series [4] (setting [9]), in series [4] (setting [10]), in series [4] (setting [11]), in series [4] (setting [12]), in series [4] (setting [13]) and in series [4] (setting [14]) was 200 µg/mL (≈ 740 µM) in each case. Also, the MIC in series [4] (setting [9]) amounted to 200 µg/mL (≈ 740 µM); in series [4] (setting [10]), 200 µg/mL (≈ 740 µM); in series [4] (setting [11]) it was 200 µg/mL (≈ 740 µM); in series [4] (setting [12]) it was 200 µg/mL (≈ 740 µM); in series [4] (setting [13]) it was 100 µg/mL (≈ 370 µM); in series [4] (setting [14]) it was 200 µg/mL (≈ 740 µM). For the same compound, the “Inhibition (%) sPLA2” value in series [1] (10 μg/mL) turned out to be 38.18 ± 1.80%.
As for `O=C1CC(c2ccccc2)Oc2cc(O)ccc21` (stereo not drawn) [HF, 7-hydroxyflavanone], the MBC was above 500 µg/mL in series [4] (setting [9]); above 500 µg/mL in series [4] (setting [10]); 200 µg/mL (≈ 832 µM) in series [4] (setting [11]); above 500 µg/mL in series [4] (setting [12]); above 500 µg/mL in series [4] (setting [13]); above 500 µg/mL in series [4] (setting [14]).
For `[Na+].[Na+].[O]=[Cr](=[O])([O-])[O][Cr](=[O])(=[O])[O-]` [sodium dichromate], the “LC50 (concentration that kills 50% of the A. salina larvae)” value in series [5] turned out to be 30 µg/mL.
With `O=C(/C=C/c1ccccc1)c1ccc(O)cc1O` [DHC, 2′,4′-dihydroxychalcone], the results for the IC50 in series [2] and in series [3] were 414 µM and 7.16 µM, respectively. Also, the MBC came out at 50 µg/mL (≈ 208 µM) in series [4] (setting [9]); 100 µg/mL (≈ 416 µM) in series [4] (setting [10]); 100 µg/mL (≈ 416 µM) in series [4] (setting [11]); 100 µg/mL (≈ 416 µM) in series [4] (setting [12]); 200 µg/mL (≈ 832 µM) in series [4] (setting [13]); 200 µg/mL (≈ 832 µM) in series [4] (setting [14]). The minimal inhibitory concentration (MIC) in series [4] (setting [9]) amounted to 50 µg/mL (≈ 208 µM); in series [4] (setting [10]) it was 25 µg/mL (≈ 104 µM); in series [4] (setting [11]), 25 µg/mL (≈ 104 µM); in series [4] (setting [12]) it was 25 µg/mL (≈ 104 µM); in series [4] (setting [13]), 25 µg/mL (≈ 104 µM); in series [4] (setting [14]), 100 µg/mL (≈ 416 µM). Also, the “morphological changes in the cell appearance” value in series [6] is “visible cellular aggregation, blebs on the cellular surface and cytoplasmic coagulation”. Moreover, the biofilm formation inhibition entry in series [7] was “most active pure compound”. Also, in series [1] (10 μg/mL), the “Inhibition (%) sPLA2” value amounted to 60.50 ± 2.90%. The genotoxicity entry in series [8] is reported as “did not find genotoxicity”.

Source of the values: paper PMC6303142 (Saudi Journal of Biological Sciences, 2016).
